From US20230365639A1, “DEFENSIN FRAGMENT DERIVED LIPOPEPTIDES FOR TREATMENT OF DRUG-RESISTANT MICROORGANISMS” (priority 2020, published 2023)

Experiments:
[1] = Cellular toxicity, WST-1 cell proliferation assay; format: cell-based
Method: (§1) Methods: Cellular toxicity was determined by Lactate dehydrogenase concentration and WST-1 cell proliferation assay as well as hemolysis assay.

[2] = tested on: C. rodentium strain ICC180; experiment: Established gastrointestinal infection caused by C. rodentium; format: in vivo, mice; details: two doses of 250 μg orally 5 days post infection; content or tissue not specified
Method: All mice were euthanized by asphyxiation with CO2 at indicated time points. Intestinal tissues (small intestine, cecum, colon) were removed aseptically. To collect intestinal content, organs were flushed with PBS. Organs were opened longitudinally, cleaned thoroughly with PBS and weighted. Organs and content were homogenized in PBS using a Polytron homogenizer (Kinemtatica). Dilutions of homogenized samples were plated on LB plates containing 50 μg/ml kanamycin to determine CFUs.
Methods: Citrobacter rodentium infection. Bioluminescence expressing C. rodentium strain ICC180 was used for all infection experiments (Wiles et al., 2004). C. rodentium inoculae were prepared by culturing bacteria overnight at 37° C. in LB broth with 50 μg/mI kanamycin. Subsequently, the culture was diluted 1:100 in fresh medium, and sub-cultured for 4 hours at 37° C. in LB broth (Thiemann et al., 2017). Bacteria were washed twice in phosphate-buffered saline (PBS). Mice were orally inoculated with 10^8 CFU of C. rodentium diluted in 200 μl PBS. Weight of the mice was monitored and feces was collected for measurements of the pathogen burden. 5 days post infection mice received twice 250 μg peptide solved in 100 μl PBS or only PBS orally. The following day, mice were sacrificed to assess bacterial burden in the lumen and tissues of the cecum and the colon. […]

red blood cell = experiment: Hemolysis assay; format: cell-based
Method: as §1

[3] = tested on: several pathogenic bacteria; experiment: Radial diffusion assay and MIC screening for antimicrobial activity; format: cell-based; details: radial diffusion assay and MIC determinations
Method: Methods: Log-phase bacteria were cultivated for up to 18 hours in TSB (TSB, Becton Dickinson, USA), washed and diluted to 4×10^6 CFU in 10 ml agar. Bacteria were incubated in 10 ml of 10 mM sodium phosphate, pH 7.4, containing 0.3 mg/ml of TSB powder and 1% (w/v) low EEO-agarose (AppliChem). Lipopeptides were pipetted into punched wells and diffused into the gel for 3 hours at 37° C. After that, a nutrient-rich gel with 6% TSB (w/v) and 1% agarose in 10 mM sodium phosphate buffer was poured on top of the first gel and incubated for up to 24 hours at 37° C. Then the diameter of inhibition zones was measured.
Clinical isolates of A. baumannii DSM30007, E. faecium DSM2918, K. pneumoniae DSM30104 and P. aeruginosa DSM1117 were provided by the Department for Laboratory Medicine at Robert-Bosch-Hospital Stuttgart, Germany. C. rodentium DSM16636 and E. coli DSM8695 were obtained from the Deutsche Sammlung von Mikroorganismen and Zellkultur GmbH Braunschweig, Germany. […]

Substance: Pam2-Glc-Suc-RGKAKCCK [Pam-1]
- metabolic activity (WST-1 assay) [1]: normal metabolic activity
- CFU's of C. rodentium in cecum [2]: did not reduce
- CFU's of C. rodentium in colon [2]: did not reduce
- red blood cell disruption (hemolysis) (red blood cell): minimal red blood cell disruption
- antimicrobial activity, inhibition of bacterial growth of the tested strains [3]: generally inactive
